pIC50: −log10 of the molar value. Structures can show the parent of a compound that is named as a salt. Where two headings read alike, the source gives them in different places.
Experiments:
[1] = test system: hypercholesterolemic (cholesterol-fed) hamsters; experiment: Antihypercholesterolemic activity in cholesterol-fed hamsters; assay type: in vivo, hamster; settings: two weeks; for Serum Cholesterol, Treated: mean ± SEM, n = 9-10; for Serum Cholesterol Decrease: vs control
Description: C. Assay of Antihypercholesterolemic Activity in Cholesterol-fed Hamsters
Inhibition of ACAT activity in the gut reduces the absorption of cholesterol in cholesterol-fed animals. Hamsters weighing approximately 100 g, were maintained on a diet supplemented with 0.8% cholesterol. The treatment group received 1-100 mg/kg/day, p.o., of the test compound dissolved in 500 μl of corn oil for a period of two weeks. The control group were pair-fed to the treatment group and were dosed with 500 μl of the corn oil vehicle. At sacrifice, the hamsters were anesthetized with CO2 and exsanguinated via cardiac puncture. Total serum cholesterol was determined on a Du Pont aca® IV. The data were expressed in terms of mg cholesterol per 100 ml of serum (mg %).

[2] = test system: murine macrophage-like cell line J774.A1; experiment: Inhibition of cholesterol esterification in mammalian cells (macrophage assay); assay type: cell-based
Method in brief: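 Murine J774.A1 macrophages at 37 °C received 34 μg acetylated human LDL in 10% FBS-DMEM from 24 h, compound in DMSO at 41 h, then a 0.1 mM 14C-oleic acid–BSA pulse from 43 to 45 h. Labelled cholesteryl ester was separated by TLC, counted and normalised to Lowry protein.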

[3] = target: T1, Acyl-CoA: Cholesterol Acyltransferase (ACAT) (Rattus norvegicus, UniProt Q7TQM4); experiment: Inhibition of acyl-CoA: cholesterol acyltransferase (ACAT) in hepatic microsomes (in vitro); assay type: biochemical, rat (male Sprague Dawley)
T1 construct: Microsomes were obtained by differential centrifugation; from tissue; host or cells: liver microsomes of male Sprague Dawley rats
T1 sequence (Q7TQM4 1-524): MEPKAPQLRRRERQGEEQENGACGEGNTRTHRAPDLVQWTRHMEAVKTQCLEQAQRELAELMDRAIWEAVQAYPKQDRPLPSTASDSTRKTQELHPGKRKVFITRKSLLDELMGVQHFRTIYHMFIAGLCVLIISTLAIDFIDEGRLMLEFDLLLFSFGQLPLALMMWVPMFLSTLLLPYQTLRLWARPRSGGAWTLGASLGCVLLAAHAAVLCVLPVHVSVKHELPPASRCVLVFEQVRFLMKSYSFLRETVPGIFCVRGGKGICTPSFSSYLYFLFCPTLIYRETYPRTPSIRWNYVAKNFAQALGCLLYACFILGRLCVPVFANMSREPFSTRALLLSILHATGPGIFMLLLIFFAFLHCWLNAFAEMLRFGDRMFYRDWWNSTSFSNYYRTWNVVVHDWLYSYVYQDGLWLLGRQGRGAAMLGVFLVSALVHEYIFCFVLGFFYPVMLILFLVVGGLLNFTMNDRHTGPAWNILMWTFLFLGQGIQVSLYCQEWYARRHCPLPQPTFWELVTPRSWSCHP
Description: A. Assay of the Inhibition of Acyl-CoA: Cholesterol Acyltransferase (ACAT) in Hepatic Microsomes
The ability of the compounds to inhibit ACAT, the enzyme responsible for the intracellular synthesis of cholesteryl esters, was tested as follows. Male Sprague Dawley rats weighing 150-300 g, were fed rat chow ad libitum. The animals were fasted for twenty-four hours prior to being sacrificed by decapitation. The livers were perfused in situ with 50 ml of cold 0.25M sucrose, excised, and homogenized in three volumes of 0.1M phosphate buffer, pH 7.4, that contained 0.5 mM EDTA (ethylenediaminetetraacetic acid), 1.0 mM glutathione, 0.25M sucrose and […]. Microsomes were obtained by differential centrifugation; the supernatant from an initial spin at 15,000×g for 15 minutes was centrifuged at 105,000×g for 1 hour to pellet the microsomes. The microsomes were suspended in homogenization buffer, reisolated by centrifugation, and stored at -70° C. Microsomes were used within one month of preparation.
The control assay in a final volume of 200 μl consisted of 200 μg of microsomal protein, 75 μM ^14 C-oleoyl-CoA (10,000 dpm/nmol) in 0.1M phosphate, pH 7.4, that contained 1 mM glutathione. Compounds were added in 5 μl of DMSO (dimethyl sulfoxide) and additional controls were run with DMSO only. All components, except the oleoyl-CoA, were preincubated for 15 min. at 37° C. prior to the initiation of the reaction by the addition of oleoyl-CoA. The assay was terminated after 10 min by the addition of 4 ml of chloroform:methanol (2:1, v/v). 20,000 dpm of ^3 H-cholesteryl oleate and 10 μg of unlabeled cholesteryl oleate and oleic acid were added as an internal standard and carriers, respectively. After allowing 10 min. for lipid extraction, the samples were centrifuged at 1,000×g for 10 min. to separate the solvent layers. The chloroform layer containing the neutral lipids was spotted onto a Baker SI250-Pa silica gel TLC plate and the plate developed using a hexane: diethyl ether: acetic acid (170:30:1 v/v/v) mobile phase. The lipids were visualized by their interaction with iodine vapor and the cholesteryl ester spot was scraped into a scintillation vial and counted.

[4] = J774.A1 macrophages loaded with ac-LDL, 14C-oleic acid, read-out: Cholesterol Esterification IC50
[5] = rat hepatic microsomes, 75 μM 14C-oleoyl-CoA, pH 7.4, 37° C., read-out: In Vitro ACAT IC50
[6] = In Vitro ACAT IC50, rat hepatic microsomes, 75 μM 14C-oleoyl-CoA, pH 7.4, 37° C.

Structure (SMILES)	pIC50 [2, 4]	pIC50 [3, 5]	further results
CCCCCCCN(CCCCCSc1nc(-c2ccccc2)c(-c2ccccc2)[nH]1)C(=O)Nc1ccc(F)cc1F [Example 1, N'-(2,4-difluorophenyl)-N-[5-(4,5-diphenyl-1H-imidazol-2-ylthio)pentyl]-N-heptylurea]	6.00		Serum Cholesterol, Treated ([1]; 1 mg/kg/day p.o., control 400 ± 25): 295 ± 12 mg %; Serum Cholesterol Decrease ([1]; 1 mg/kg/day p.o.): 26%; Serum Cholesterol, Treated ([1]; 3 mg/kg/day p.o., control 381 ± 17): 279 ± 16 mg %; Serum Cholesterol Decrease ([1]; 3 mg/kg/day p.o.): 27%; Serum Cholesterol, Treated ([1]; 10 mg/kg/day p.o., control 371 ± 7): 201 ± 12 mg %; Serum Cholesterol Decrease ([1]; 10 mg/kg/day p.o.): 46%; Serum Cholesterol, Treated ([1]; 30 mg/kg/day p.o., control 368 ± 15): 197 ± 11 mg %; Serum Cholesterol Decrease ([1]; 30 mg/kg/day p.o.): 46%; Serum Cholesterol, Treated ([1]; 100 mg/kg/day p.o., control 400 ± 17): 62 ± 8 mg %; Serum Cholesterol Decrease ([1]; 100 mg/kg/day p.o.): 60%
CCCCCCCN(CCCCCSc1nc(-c2ccc(OC)cc2)c(-c2ccc(OC)cc2)[nH]1)C(=O)Cc1ccc(F)cc1F [Example 351, N-[5-[4,5-bis(4-methoxyphenyl)-1H-imidazol-2-ylthio]pentyl]-2,4-difluoro-N-heptylbenzeneacetamide]	7.40	6.60	
CCCCCCCN(CCCC)CCCCCSc1nc(-c2ccccc2)c(-c2ccccc2)[nH]1 [Example 352]	5.66	6.52	
CCCCCCCN(CCCCCSc1nc(-c2ccc(OC)cc2)c(-c2ccc(OC)cc2)[nH]1)CCc1ccc(F)cc1F [Example 353, N-[5-[4,5-bis(4-methoxyphenyl)-1H-imidazol-2-ylthio]pentyl]-2,4-difluoro-N-heptylbenzeneethaneamine]	7.10	6.62	
CCCCCCCN(CCCCCSc1nc(-c2ccc(N(C)C)cc2)c(-c2ccc(N(C)C)cc2)[nH]1)C(=O)CC1CCCCC1 [Example 354]	7.70	7.30	
CCCCCCCN(CCCCCSc1nc(-c2ccc(OC)cc2)c(-c2ccc(OC)cc2)[nH]1)C(=O)CC1CCCCC1 [Example 355, N-[5-[4,5-bis(4-methoxyphenyl)-1H-imidazol-2-ylthio]pentyl]-N-heptylcyclohexaneacetamide]	7.52	8.00	
CCCCCCCN(CCCCCSc1nc(-c2ccccc2)c(-c2ccccc2)[nH]1)C(=O)OCC(C)C [Example 403, (2-Methylpropyl) [5-(4,5-diphenyl-1H-imidazol-2-ylthio)pentyl]heptylcarbamate]	6.30	7.46	
CCCCCCCN(CCCCCSc1nc(-c2ccccc2)c(-c2ccccc2)[nH]1)C(=O)OCC [Example 404, Ethyl [5-(4,5-diphenyl-1H-imidazol-2-ylthio)pentyl]heptylcarbamate]	6.30	7.48	
CCCCCCCCOC(=O)N(CCCCCCC)CCCCCSc1nc(-c2ccccc2)c(-c2ccccc2)[nH]1 [Example 405, Octyl [5-(4,5-diphenyl-1H-imidazol-2-ylthio)pentyl]heptylcarbamate]	5.41	6.30	
CCCCCCCN(CCCCCSc1nc(-c2ccccc2)c(-c2ccccc2)[nH]1)C(=O)Oc1ccc(F)cc1 [Example 406, (4-fluorophenyl)[5-(4,5-diphenyl-1H-imidazol-2-ylthio)pentyl]heptylcarbamate]	6.22		pIC50 [3, 6]: 8.00
CCCCCCCN(CCCCCSc1nc(-c2ccccc2)c(-c2ccccc2)[nH]1)C(=O)OCCC [Example 407, Propyl [5-(4,5-diphenyl-1H-imidazol-2-ylthio)pentyl]heptylcarbamate]	6.10	7.40	
CCCCCCCN(CCCCCSc1nc(-c2ccccc2)c(-c2ccccc2)[nH]1)C(=O)OCc1ccccc1 [Example 408, (Phenylmethyl) [5-(4,5-diphenyl-1H-imidazol-2-ylthio)pentyl]heptylcarbamate]	5.89	8.05	
CCCCCCCN(CCCCCSc1nc(-c2ccc(OC)cc2)c(-c2ccc(OC)cc2)[nH]1)C(=O)Oc1ccccc1 [Example 410]	7.52		pIC50 [3, 6]: 6.19
CCCCCCCN(CCCCCSc1nc(C(C)C)c(C(C)C)[nH]1)C(=O)Oc1ccccc1 [Example 411, phenyl N-[5-(4,5-bis(1-methylethyl)-1H-imidazol-2-ylthio]pentyl]-N-heptylcarbamat]	6.30		pIC50 [3, 6]: 6.51
CCCCCCCN(CCCCCSc1nc(-c2ccc(OC)cc2)c(-c2ccc(OC)cc2)[nH]1)C(=O)OCC(C)C [Example 457]	7.00	6.08	
CCCCCCCNCCCCCSc1nc(-c2ccccc2)c(-c2ccccc2)[nH]1 [N-[5(4,5-diphenyl-1H-imidazol-2-ylthio)pentyl]-1-heptanaminehydrochloride]			pIC50 ([2]; intermediate, read-out: IC50 in the macrophage assay): 5.22; pIC50 ([3]; intermediate, read-out: IC50 in the in vitro ACAT assay): 7.00
